Experimental data taken from the CheMixHub viscosity set.

Experiment: xn = mol fraction of the nth substance listed

C1CCCCC1 + CCCCCCC
Settings | viscosity [mPa·s]
298.15 K, 101 kPa, x1 = 0.3947 | 0.588
298.15 K, 101 kPa, x1 = 0.4171 | 0.598
298.15 K, 101 kPa, x1 = 0.4283 | 0.604
298.15 K, 101 kPa, x1 = 0.4413 | 0.612
298.15 K, 101 kPa, x1 = 0.4536 | 0.618
298.15 K, 101 kPa, x1 = 0.4623 | 0.622
298.15 K, 101 kPa, x1 = 0.469 | 0.626
298.15 K, 101 kPa, x1 = 0.4767 | 0.629
298.15 K, 101 kPa, x1 = 0.4813 | 0.631
298.15 K, 101 kPa, x1 = 0.4869 | 0.634
298.15 K, 101 kPa, x1 = 0.4921 | 0.636
298.15 K, 101 kPa, x1 = 0.4949 | 0.638
298.15 K, 101 kPa, x1 = 0.499 | 0.64
298.15 K, 101 kPa, x1 = 0.5069 | 0.644
298.15 K, 101 kPa, x1 = 0.5154 | 0.648
298.15 K, 101.33 kPa, x1 = 0.1013 | 0.406
298.15 K, 101.33 kPa, x1 = 0.1036 | 0.4183
298.15 K, 101.33 kPa, x1 = 0.2023 | 0.4381
298.15 K, 101.33 kPa, x1 = 0.2027 | 0.425
298.15 K, 101.33 kPa, x1 = 0.2962 | 0.46
298.15 K, 101.33 kPa, x1 = 0.304 | 0.448
298.15 K, 101.33 kPa, x1 = 0.3888 | 0.484
298.15 K, 101.33 kPa, x1 = 0.4037 | 0.475
298.15 K, 101.33 kPa, x1 = 0.4752 | 0.512
298.15 K, 101.33 kPa, x1 = 0.4998 | 0.505
298.15 K, 101.33 kPa, x1 = 0.5556 | 0.5415
298.15 K, 101.33 kPa, x1 = 0.6018 | 0.546
298.15 K, 101.33 kPa, x1 = 0.6389 | 0.5789
298.15 K, 101.33 kPa, x1 = 0.6985 | 0.594
298.15 K, 101.33 kPa, x1 = 0.7049 | 0.6136
298.15 K, 101.33 kPa, x1 = 0.7751 | 0.6582
298.15 K, 101.33 kPa, x1 = 0.8024 | 0.661
298.15 K, 101.33 kPa, x1 = 0.8468 | 0.7195
298.15 K, 101.33 kPa, x1 = 0.9002 | 0.751
298.15 K, 101.33 kPa, x1 = 0.9096 | 0.7778
298.15 K, 101.33 kPa, x1 = 0.9735 | 0.8588
298.15 K, 101.33 kPa, x2 = 0.1008 | 0.776
298.15 K, 101.33 kPa, x2 = 0.2001 | 0.68
298.15 K, 101.33 kPa, x2 = 0.2493 | 0.641
298.15 K, 101.33 kPa, x2 = 0.3511 | 0.578
298.15 K, 101.33 kPa, x2 = 0.4012 | 0.556
298.15 K, 101.33 kPa, x2 = 0.4993 | 0.52
298.15 K, 101.33 kPa, x2 = 0.5726 | 0.483
298.15 K, 101.33 kPa, x2 = 0.6007 | 0.479
298.15 K, 101.33 kPa, x2 = 0.7471 | 0.447
298.15 K, 101.33 kPa, x2 = 0.8984 | 0.409
303.15 K, 101 kPa, x1 = 0.0998 | 0.3894
303.15 K, 101 kPa, x1 = 0.2012 | 0.4064
303.15 K, 101 kPa, x1 = 0.298 | 0.4275
303.15 K, 101 kPa, x1 = 0.3986 | 0.454
303.15 K, 101 kPa, x1 = 0.5009 | 0.4857
303.15 K, 101 kPa, x1 = 0.5994 | 0.524
303.15 K, 101 kPa, x1 = 0.7025 | 0.5716
303.15 K, 101 kPa, x1 = 0.7975 | 0.6321
303.15 K, 101 kPa, x1 = 0.9009 | 0.7191
303.15 K, 101.33 kPa, x1 = 0.1013 | 0.386
303.15 K, 101.33 kPa, x1 = 0.2027 | 0.402
303.15 K, 101.33 kPa, x1 = 0.304 | 0.422
303.15 K, 101.33 kPa, x1 = 0.4037 | 0.447
303.15 K, 101.33 kPa, x1 = 0.4998 | 0.477
303.15 K, 101.33 kPa, x1 = 0.6018 | 0.512
303.15 K, 101.33 kPa, x1 = 0.6985 | 0.556
303.15 K, 101.33 kPa, x1 = 0.8024 | 0.619
303.15 K, 101.33 kPa, x1 = 0.9002 | 0.694
308.15 K, 101.33 kPa, x1 = 0.1013 | 0.365
308.15 K, 101.33 kPa, x1 = 0.2027 | 0.379
308.15 K, 101.33 kPa, x1 = 0.304 | 0.399
308.15 K, 101.33 kPa, x1 = 0.4037 | 0.422
308.15 K, 101.33 kPa, x1 = 0.4998 | 0.448
308.15 K, 101.33 kPa, x1 = 0.6018 | 0.481
308.15 K, 101.33 kPa, x1 = 0.6985 | 0.52
308.15 K, 101.33 kPa, x1 = 0.8024 | 0.577
308.15 K, 101.33 kPa, x1 = 0.9002 | 0.643

COC(C)=O + CCCCCCCC
298.15 K, 101.3 kPa
Settings | viscosity [mPa·s]
x1 = 0.1268 | 0.4797
x1 = 0.2408 | 0.4518
x1 = 0.337 | 0.4361
x1 = 0.431 | 0.4213
x1 = 0.5066 | 0.4108
x1 = 0.5788 | 0.4021
x1 = 0.644 | 0.3953
x1 = 0.757 | 0.3849
x1 = 0.8528 | 0.3786

C1CCCCC1 + CCCCCCCCCC
Settings | viscosity [mPa·s]
298.15 K, 101 kPa, x2 = 0.1357 | 0.8838
298.15 K, 101 kPa, x2 = 0.1638 | 0.8739
298.15 K, 101 kPa, x2 = 0.1909 | 0.8684
298.15 K, 101 kPa, x2 = 0.2292 | 0.8595
298.15 K, 101 kPa, x2 = 0.2677 | 0.8527
298.15 K, 101 kPa, x2 = 0.2769 | 0.8484
298.15 K, 101 kPa, x2 = 0.316 | 0.8438
298.15 K, 101 kPa, x2 = 0.3563 | 0.8348
298.15 K, 101.33 kPa, x1 = 0.1037 | 0.836
298.15 K, 101.33 kPa, x1 = 0.1316 | 0.8418
298.15 K, 101.33 kPa, x1 = 0.2065 | 0.824
298.15 K, 101.33 kPa, x1 = 0.254 | 0.8386
298.15 K, 101.33 kPa, x1 = 0.3077 | 0.818
298.15 K, 101.33 kPa, x1 = 0.3302 | 0.8292
298.15 K, 101.33 kPa, x1 = 0.4003 | 0.818
298.15 K, 101.33 kPa, x1 = 0.467 | 0.8331
298.15 K, 101.33 kPa, x1 = 0.5005 | 0.818
298.15 K, 101.33 kPa, x1 = 0.5494 | 0.8222
298.15 K, 101.33 kPa, x1 = 0.6 | 0.814
298.15 K, 101.33 kPa, x1 = 0.6289 | 0.8303
298.15 K, 101.33 kPa, x1 = 0.7015 | 0.8247
298.15 K, 101.33 kPa, x1 = 0.7045 | 0.812
298.15 K, 101.33 kPa, x1 = 0.7719 | 0.8409
298.15 K, 101.33 kPa, x1 = 0.802 | 0.819
298.15 K, 101.33 kPa, x1 = 0.8324 | 0.8412
298.15 K, 101.33 kPa, x1 = 0.8857 | 0.8612
298.15 K, 101.33 kPa, x1 = 0.9001 | 0.845
298.15 K, 101.33 kPa, x1 = 0.9309 | 0.8746
298.15 K, 101.33 kPa, x2 = 0.0178 | 0.8968
303.15 K, 101.33 kPa, x1 = 0.1037 | 0.78
303.15 K, 101.33 kPa, x1 = 0.2065 | 0.766
303.15 K, 101.33 kPa, x1 = 0.3077 | 0.761
303.15 K, 101.33 kPa, x1 = 0.4003 | 0.761
303.15 K, 101.33 kPa, x1 = 0.5005 | 0.76
303.15 K, 101.33 kPa, x1 = 0.6 | 0.756
303.15 K, 101.33 kPa, x1 = 0.7045 | 0.754
303.15 K, 101.33 kPa, x1 = 0.802 | 0.759
303.15 K, 101.33 kPa, x1 = 0.9001 | 0.78
308.15 K, 101 kPa, x1 = 0.0439 | 0.7345
308.15 K, 101 kPa, x1 = 0.175 | 0.7272
308.15 K, 101 kPa, x1 = 0.2106 | 0.7254
308.15 K, 101 kPa, x1 = 0.3096 | 0.7164
308.15 K, 101 kPa, x1 = 0.3863 | 0.7147
308.15 K, 101 kPa, x1 = 0.4943 | 0.7122
308.15 K, 101 kPa, x1 = 0.5864 | 0.7133
308.15 K, 101 kPa, x1 = 0.7303 | 0.7189
308.15 K, 101 kPa, x1 = 0.8805 | 0.7325
308.15 K, 101 kPa, x1 = 0.9385 | 0.7399
308.15 K, 101.33 kPa, x1 = 0.1037 | 0.728
308.15 K, 101.33 kPa, x1 = 0.2065 | 0.713
308.15 K, 101.33 kPa, x1 = 0.3077 | 0.708
308.15 K, 101.33 kPa, x1 = 0.4003 | 0.71
308.15 K, 101.33 kPa, x1 = 0.5005 | 0.71
308.15 K, 101.33 kPa, x1 = 0.6 | 0.702
308.15 K, 101.33 kPa, x1 = 0.7045 | 0.699
308.15 K, 101.33 kPa, x1 = 0.802 | 0.703
308.15 K, 101.33 kPa, x1 = 0.9001 | 0.716
313.15 K, 101 kPa, x1 = 0.0439 | 0.6849
313.15 K, 101 kPa, x1 = 0.175 | 0.6717
313.15 K, 101 kPa, x1 = 0.2106 | 0.6706
313.15 K, 101 kPa, x1 = 0.3096 | 0.666
313.15 K, 101 kPa, x1 = 0.3863 | 0.6618
313.15 K, 101 kPa, x1 = 0.4943 | 0.6596
313.15 K, 101 kPa, x1 = 0.5864 | 0.6577
313.15 K, 101 kPa, x1 = 0.7303 | 0.6684
313.15 K, 101 kPa, x1 = 0.8805 | 0.6936
313.15 K, 101 kPa, x1 = 0.9385 | 0.7077

COC(C)=O + CCCCCCCCCC
298.15 K, 101.3 kPa
Settings | viscosity [mPa·s]
x1 = 0.0803 | 0.7987
x1 = 0.1876 | 0.7291
x1 = 0.3354 | 0.6485
x1 = 0.4452 | 0.5969
x1 = 0.476 | 0.5809
x1 = 0.5538 | 0.5456
x1 = 0.618 | 0.5186
x1 = 0.7363 | 0.4714
x1 = 0.8315 | 0.4356
